pIC50: −log10 of the molar value.
Key:
[1] = tested on: HL60 (human promyelocytic leukemia) cells; assay: HL60 cytotoxicity assay (CellTiter-Glo); assay type: cell-based; settings: HL-60, 72 h, cytotoxicity, three days culture, read-out: HL60 IC50
Source text: The cell lines HL60 (human promyelocytic leukemia) and HCT116 (human colon carcinoma) were obtained from the American Type Culture Collection, Manassas, Va., U.S.A., and HUVEC-2 (human umbilical vein endothelial cells) from BD Biosciences, Bedford, Mass., U.S.A. Aurora A kinase was obtained from Upstate Biotech, Billerica, Mass., U.S.A.; Aurora B kinase from BPS Bioscience, San Diego, Calif., U.S.A.; and VEGFR2 kinase from Cell Signaling Technology, Danvers, Mass., U.S.A. The IMAP FP Screening Express kit was obtained from Molecular Devices, Sunnyvale, Calif., U.S.A.; the CellTiter-Glo assay kit from Promega Corporation, Madison, Wis., U.S.A.; and the Cellular DNA Cytometric Analysis Reagent Kit and BrdU labeling and detection kit from Roche Diagnostics Corporation, Indianapolis, Ind., U.S.A. All products were used in accordance with manufacturer's directions. Kinase inhibition assays and the histone phosphorylation (p-H3) assay were conducted in duplicate, and the cytotoxicity and HUVEC proliferation assays were conducted in triplicate, in each case with solvent control.
Log-phase cells were trypsinized, collected by centrifugation, and resuspended in a small volume of fresh medium, and the density of viable cells was determined following Trypan Blue staining. Cells were diluted in fresh media (1×10^4 cells/mL for HL60 and 4×10^4 cells/mL for HCT116 cells), the test compounds (concentrations between 0.1 μM and 200 μM, dissolved in DMSO, 50 μL) added immediately after dilution to achieve a final DMSO concentration of 0.5%, then the suspensions added at 150 μL/well to 96-well plates, and incubated overnight to allow attachment in the case of adherent cells. The cells were cultured for three days (about three doubling times). The cells were then collected by centrifugation, and 100 μL of the culture supernatant was replaced by the CellTiter-Glo reagent. After incubation for 15 minutes at room temperature, the plate was read with a luminometer.

[2] = tested on: p-H3 in HCT116 cells; assay: Histone phosphorylation (p-H3) assay; assay type: cell-based; settings: Homo sapiens, HCT-116; HCT116 cells, 4 hr incubation; read-out: p-H3 IC50
Procedure, shortened: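 HCT116 cells (2.5×10^4/well, attached overnight) treated 4 h with 8-point 3-fold compound dilutions at 0.5% DMSO. Lysates dot-blotted onto nitrocellulose and probed for p-H3 with β-actin on the same membrane, fluorescent secondary antibodies, Odyssey scan; duplicate wells.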

[3] = tested on: HUVEC-2 (human umbilical vein endothelial cells); assay: HUVEC VEGF-dependent proliferation assay (BrdU); assay type: cell-based; settings: VEGF (25 ng/mL)-dependent proliferation, read-out: HUVEC IC50
Procedure, shortened: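 HUVEC-2 cells on gelatin got serially diluted compound (0.5% DMSO final), and VEGF (25 ng/mL) was added 2 hr later. BrdU (10 μM) went in after one day, with labelling for another day. VEGF-dependent proliferation was read by BrdU detection, in triplicate.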

[4] = biological target: T1, VEGFR2 kinase (Homo sapiens, UniProt P35968); assay: VEGFR2 kinase assay; assay type: biochemical; settings: 6 μM ATP, 1 mM MnCl2; rounded to 1 significant figure
T1 construct: purchased Cell Signaling Technology
T1 sequence (P35968 20-1356): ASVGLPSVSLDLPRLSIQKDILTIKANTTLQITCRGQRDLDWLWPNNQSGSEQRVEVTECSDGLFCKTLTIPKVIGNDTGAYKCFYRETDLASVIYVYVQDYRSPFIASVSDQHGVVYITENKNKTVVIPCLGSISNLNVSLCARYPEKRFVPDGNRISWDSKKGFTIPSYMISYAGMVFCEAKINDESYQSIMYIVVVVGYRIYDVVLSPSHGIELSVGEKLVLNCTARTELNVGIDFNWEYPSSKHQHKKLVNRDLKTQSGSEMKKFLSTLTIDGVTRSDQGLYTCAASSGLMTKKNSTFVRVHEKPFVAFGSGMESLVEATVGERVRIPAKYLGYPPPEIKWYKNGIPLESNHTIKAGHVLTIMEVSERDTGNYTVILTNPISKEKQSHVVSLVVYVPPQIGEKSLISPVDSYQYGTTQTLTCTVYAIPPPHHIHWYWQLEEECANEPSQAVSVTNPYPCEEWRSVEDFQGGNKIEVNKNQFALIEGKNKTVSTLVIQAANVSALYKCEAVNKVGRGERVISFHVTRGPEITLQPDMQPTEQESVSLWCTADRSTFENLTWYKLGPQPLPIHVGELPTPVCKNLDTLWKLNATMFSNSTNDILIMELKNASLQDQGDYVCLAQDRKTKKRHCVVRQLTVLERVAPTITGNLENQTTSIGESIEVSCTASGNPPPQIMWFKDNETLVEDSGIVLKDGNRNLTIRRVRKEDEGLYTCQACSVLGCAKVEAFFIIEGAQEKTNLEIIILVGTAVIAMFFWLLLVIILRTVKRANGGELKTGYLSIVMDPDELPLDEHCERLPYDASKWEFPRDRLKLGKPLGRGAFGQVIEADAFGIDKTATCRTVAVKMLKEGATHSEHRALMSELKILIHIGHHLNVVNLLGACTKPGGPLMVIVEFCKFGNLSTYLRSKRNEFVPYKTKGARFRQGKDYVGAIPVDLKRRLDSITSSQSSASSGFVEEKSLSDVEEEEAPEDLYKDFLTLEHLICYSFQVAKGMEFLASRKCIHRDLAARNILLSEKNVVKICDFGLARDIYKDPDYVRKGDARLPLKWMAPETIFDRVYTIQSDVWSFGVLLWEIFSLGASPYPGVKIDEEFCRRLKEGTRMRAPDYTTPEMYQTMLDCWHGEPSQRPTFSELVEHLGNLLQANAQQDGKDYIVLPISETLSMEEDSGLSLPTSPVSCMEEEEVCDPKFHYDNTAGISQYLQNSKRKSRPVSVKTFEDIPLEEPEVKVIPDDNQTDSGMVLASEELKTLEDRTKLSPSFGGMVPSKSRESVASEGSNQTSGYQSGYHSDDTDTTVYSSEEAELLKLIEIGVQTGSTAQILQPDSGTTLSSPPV
Procedure, shortened: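 VEGFR2 phosphorylates CSKtide with 6 μM ATP and 1 mM MnCl2 for 1 hr, otherwise following the Aurora A kinase protocol. Detection by IMAP fluorescence polarization, binding reagent diluted 1:1200 in 1:1 binding buffer A/B. Run in duplicate with solvent control.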

[5] = biological target: T2, Aurora A kinase (Homo sapiens, UniProt O14965); assay: Aurora A kinase assay (IMAP fluorescence polarization); assay type: biochemical; settings: 10 μM ATP; rounded to 1 significant figure; read-out: Aur-A IC50
T2 construct: purchased Upstate Biotech
T2 sequence (O14965 1-403): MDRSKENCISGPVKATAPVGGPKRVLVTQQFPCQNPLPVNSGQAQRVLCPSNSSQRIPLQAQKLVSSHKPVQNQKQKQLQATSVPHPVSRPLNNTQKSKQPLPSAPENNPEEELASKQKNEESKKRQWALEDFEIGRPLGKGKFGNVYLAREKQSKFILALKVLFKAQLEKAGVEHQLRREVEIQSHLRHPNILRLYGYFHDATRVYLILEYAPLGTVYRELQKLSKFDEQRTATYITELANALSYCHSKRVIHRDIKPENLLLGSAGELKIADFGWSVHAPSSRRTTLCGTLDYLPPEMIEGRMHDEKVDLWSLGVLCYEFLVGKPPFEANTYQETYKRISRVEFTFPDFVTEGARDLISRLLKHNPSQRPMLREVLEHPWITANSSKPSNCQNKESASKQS
Procedure, shortened: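 Compounds (eight 3-fold dilutions, 2.5% DMSO final) were preincubated 5 min at room temperature with Aurora A kinase in buffer with 1 mM DTT. Reaction with 100 nM fluorescein-PKAtide and 10 μM ATP ran 45 min at room temperature, then was stopped with IMAP binding reagent; fluorescence polarization was read after 30 min.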

[6] = tested on: HCT116 (human colon carcinoma) cells; assay: HCT116 cytotoxicity assay (CellTiter-Glo); assay type: cell-based; settings: HCT-116, 72 h, cytotoxicity, three days culture, read-out: HCT116 IC50
[7] = biological target: T3, Aurora B kinase (Homo sapiens, UniProt Q96GD4); assay: Aurora B kinase assay (IMAP fluorescence polarization); assay type: biochemical; settings: 10 μM ATP; rounded to 1 significant figure; read-out: Aur-B IC50
T3 construct: purchased BPS Bioscience
T3 sequence (Q96GD4 whole entry): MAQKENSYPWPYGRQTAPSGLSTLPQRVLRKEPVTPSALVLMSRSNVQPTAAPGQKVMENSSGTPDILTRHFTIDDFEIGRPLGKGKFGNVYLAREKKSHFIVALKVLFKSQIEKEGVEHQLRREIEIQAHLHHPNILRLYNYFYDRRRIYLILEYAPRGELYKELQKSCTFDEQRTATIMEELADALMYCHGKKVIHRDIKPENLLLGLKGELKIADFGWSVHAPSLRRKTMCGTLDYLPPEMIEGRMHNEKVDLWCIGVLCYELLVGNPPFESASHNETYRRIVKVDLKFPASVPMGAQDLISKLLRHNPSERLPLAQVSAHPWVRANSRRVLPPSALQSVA
Procedure, shortened: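 Reaction started with 100 nM fluorescein-labelled PKAtide and 10 μM ATP, run 45 min at room temperature, then stopped with IMAP binding reagent (1:400). After 30 min shaking at room temperature, fluorescence polarization read; run in duplicate with solvent control.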

[8] = tested on: HL60 (human promyelocytic leukemia) xenograft; assay: HL60 xenograft assay, oral administration; assay type: in vivo, athymic nu/nu mice
Protocol: Male athymic nu/nu mice, 6-8 weeks old (about 20 g), were implanted subcutaneously in the right fore flank with about 1×10^7 cells of the HL60 (human promyelocytic leukemia) line that had been grown in antibiotic-free medium for at least two passages. About 6 days after tumor implantation, when the tumor weight was about 50-250 mg, the mice were assigned to treatment groups. […] […] Tumor growth inhibition was measured 1-2 days after the last day of treatment.

Compound | pIC50 [1] | pIC50 [2] | pIC50 [3] | pIC50 [4] | pIC50 [5] | pIC50 [6] | pIC50 [7] | tumor inhibition relative to vehicle ([8]; dissolved at 10 mg/mL in 0.1M sodium acetate pH5) [%] | inhibition of tumor growth compared to vehicle ([8]; 150 mg/Kg by gavage once/day on days 1-5 and 8-10, measured 1-2 days after last treatment) [%]
NC(=O)/C(=C1\Nc2ccc(Oc3cccnc3)cc2S1)c1nccc(C(F)(F)F)n1 [Compound 118A] | 6.52 | 5.40 | 6.70 | 7.00 | 7.40 | 5.70 | 8.00 | – | –
CN1CCCC[C@H]1C(=O)Nc1ccc2c(c1)N/C(=C(/C(N)=O)c1nccc(C(F)(F)F)n1)N2 [Compound 142A] | 6.70 | 6.52 | 7.05 | 8.00 | 8.70 | 6.52 | 8.40 | 89 | –
NC(=O)/C(=C1\Nc2ccc(NC(=O)[C@H]3CCCN3)cc2N1)c1nccc(C(F)(F)F)n1 [Compound 79A] | 6.52 | 6.40 | 7.40 | 8.00 | 7.70 | 7.00 | 7.70 | – | –
NC(=O)C(=C1Nc2cc(F)c(F)cc2N1)c1nccc(C(F)(F)F)n1 [Compound 38A] | 6.00 | 6.52 | 7.00 | 6.70 | 7.40 | 6.10 | 8.00 | – | –
NC(=O)/C(=C1\Nc2ccc(CCN3CCOCC3)cc2S1)c1nccc(C(F)(F)F)n1 [Compound 101A] | 5.70 | 6.00 | 7.30 | 7.70 | 8.15 | 6.00 | 8.05 | – | 38
NC(=O)/C(=C1\Nc2ccc(C(=O)N3CCNCC3)cc2S1)c1nccc(C(F)(F)F)n1 [Compound 61A] | 6.70 | 7.52 | 7.70 | 8.40 | 7.70 | 7.00 | 8.00 | – | –
CCN(CCCn1ccnc1)C(=O)c1ccc2c(c1)N/C(=C(/C(N)=O)c1nccc(C(F)(F)F)n1)N2 [Compound 48A] | 7.00 | 6.52 | 7.40 | 8.00 | 8.00 | 6.22 | 9.00 | – | –
CC(C)(N)C(=O)Nc1ccc2c(c1)N/C(=C(/C(N)=O)c1nccc(C(F)(F)F)n1)N2 [Compound 81A] | 6.70 | 7.05 | 7.10 | 8.05 | 8.22 | 6.52 | 8.15 | – | –
CN1CCC[C@H]1C(=O)Nc1ccc2c(c1)S/C(=C(/C(N)=O)c1nccc(C(F)(F)F)n1)N2 [Compound 78A] | 6.00 | 6.22 | 6.40 | 7.30 | 7.22 | 5.70 | 7.40 | – | –
NC(=O)/C(=C1\Nc2ccc(C(=O)NCCN3CCOCC3)cc2N1)c1nccc(C(F)(F)F)n1 [Compound 53A] | 6.70 | 6.70 | 7.52 | 7.70 | 8.52 | 6.52 | 8.00 | – | –

— patent US8129396B2, “2-[1H-benzimidazol-2(3H)-ylidene]-2-(pyrimidin-2-yl)acetamides and 2-[benzothiazol-2(3H)-ylidene]-2-(pyrimidin-2-yl)acetamides as kinase inhibitors” (Telik, Inc., priority 2008, dated 2012)
